We go through three molecules from patent US20160199320A1, “Ophthalmic Treatments” (Optosolve Research & Development Limited, priority 2011, published 2016).

The subject of data set [1] is undamaged eye. As to conditions: topically applied to an undamaged eye; cited from earlier work.
Data set [2] concerns eye. The experiment in a line: pilocarpine drops for constriction of the pupil, with or without tramadol drops. In kind it is in vivo. As for the experimental part:
In a first example, an eye was treated with pilocarpine drops to cause constriction of the pupil (in this particular example, as part of an ophthalmic diagnostic procedure, although pilocarpine is also be used therapeutically). Such drops can cause significant discomfort and excessive tear formation, possibly washing pilocarpine out of the eye before it could take effect. […] This implies that the tramadol may well be improving the absorption of other drugs.

The subject of data set [3] is eye. The experiment in a line: eye-drop formulation with tramadol in the left eye of a healthy subject, sensation in the eye. As to conditions: 0.5% w/v tramadol eye-drop. In kind it is in vivo, human. As for the experimental part:
In a third example, a conventional ophthalmic eye-drop formulation was made up, but with the addition of 0.5% w/v tramadol. This formulation was administered to the left eye of a healthy subject. […] Sensation in the right eye remained normal.

Data set [4] has as its system eye. Briefly: sixth example: tramadol eye-drops in a painful infection of the eye. In kind it is in vivo, human. The source says:
In a sixth example, an infection of the subject's eye required treatment with antibiotics. However, the subject was unable to open the respective eyelid due to the consequent pain.

Data set [5] deals with eye. Briefly: fourth example: patient suffering from dry-eye, tramadol eye-drops, artificial tears, or combination. The note with it: topical. In kind it is in vivo, human. The source says:
In a fourth example, administration of the tramadol-containing eye-drop formulation of the third example to a patient suffering from “dry-eye” reduced the resultant discomfort as expected. […] However, the discomfort remained, which for many patients would lead to actions such as rubbing the affected eye, counteracting much of the improvement.

Data set [6] concerns eye. The experiment in a line: seventh example: tramadol eye-drops in allergic eye disease. The format is in vivo, human. The source says: In a seventh example, a person presented with an allergic eye disease, resulting in significant prolonged itchiness.
Data set [7] has as its system eye. The experiment in a line: ninth example: tramadol eye-drops in blepharitis with reduced tear break-up time. The format is in vivo, human. As to conditions: eye-drops containing 1.0% w/v tramadol. An excerpt: In a ninth example, a middle-aged person with blepharitis and no corneal staining but a reduced tear break-up time was given eye-drops containing 1.0% w/v tramadol.

Data set [8] deals with eye. The experiment in a line: eighth example: tramadol eye-drops in dry eyes with unstable tear films, tear osmolarity and pain. The format is in vivo, human. The note with it: for pain: dry eye. An excerpt: In an eighth example, a person presented with dry eyes and unstable tear films, typical symptoms of “dry eye”. The patient's tear osmolarity improved, after use of an eye-drop containing 0.5% w/v tramadol in one eye, from 312 milliOsmoles before instillation of the eye drop to 299 milliOsmoles one hour after instillation.

Data set [9] concerns eye. Briefly: ciclosporin composition with added tramadol, post-operative treatment following a corneal transplant. The note with it: addition of 0.5% w/v tramadol to the composition. In kind it is in vivo. An excerpt:
In a second example, a composition containing ciclosporin would normally be administered to the eye in post-operative treatment following a corneal transplant, to avoid transplant rejection. However, this would lead to significant additional levels of discomfort in the eye.

Where [10] appears, read: drops containing tramadol administered before or in conjunction with the pilocarpine drops.
[11] abbreviates: eye-drop formulation comprising 0.5% w/v tramadol.
The mark [12] stands for this setting: tramadol 0.5% w/v where present.
The mark [13] stands for this setting: middle-aged person with blepharitis.

Take `CN1CC[C@]23c4c5ccc(O)c4O[C@H]2[C@@H](O)C=C[C@H]3[C@H]1C5` [morphine]: the analgesic effect entry in [1] is given as “very little or no analgesic effect”.

For the molecule `CC[C@@H]1C(=O)OC[C@@H]1Cc1cncn1C` [pilocarpine], the “effectiveness in constriction of the pupil” value in data set [2] (0.5% w/v pilocarpine administered promptly after or in conjunction with tramadol) is recorded as “as effective as 1% w/v pilocarpine administered without tramadol present”.

Consider `COc1cccc(C2(O)CCCCC2CN(C)C)c1` (centres unmarked) [tramadol], for which, in data set [2] (setting [10]), the “discomfort caused by pilocarpine drops” value was “greatly reduced” and the “tear formation caused by pilocarpine drops” value is “greatly reduced”. Besides, in [3], the “duration of numbing effect” value is on record as “at least 110 minutes”, the side-effects result is recorded as “No side-effects were noted” and the “time to noticeably reduced sensation in the eye after instillation” value is ≤ 3 min. For the same molecule, the “resolution of the infection” value in [4] (0.5% w/v tramadol followed by antibiotics) is given as “more rapidly than would have been expected”. In [4] (setting [11]), the discomfort result is reported as “rapidly reduced”, the “opening of the eyelid” value is on record as “permitting opening of the eyelid” and the “vision in the treated eye” value is reported as “allowed reasonable vision”. For the same molecule, the blinking entry in data set [5] (tramadol 0.5% w/v) is reported as “reduction in blinking”. In data set [5] (setting [12]), the discomfort / pain entry is given as “reduced”; the “dryness / lubrication of the eye” value is listed as “dryness remained”; the “physical signs (symptoms and signs)” value was “did not improve”. Moreover, in data set [6] (allergic eye disease, eye-drop containing 0.5% w/v tramadol, versus saline drops alone), the associated redness result is listed as “improved with time faster than for the conventional treatment with saline drops alone”. Besides, in data set [6] (allergic eye disease, person, eye-drop containing 0.5% w/v tramadol), the itchiness entry is listed as “improved within a few minutes”. In addition, the “results in allergic eye disease (itchiness, redness)” value in data set [6] (eye-drop containing 1.0% w/v tramadol, compared with 0.5% w/v) was “even more rapid and effective results”. Further, the blepharitis entry in data set [7] (middle-aged male) was “improved”. Further, in data set [7] (setting [13]), the irritable symptoms result is “improvement”; the tear break-up time result is “improved, and so did the tear break-up time”. Also, the pain result in data set [8] (eye-drop containing 0.5% w/v tramadol) is given as “reduced”. Besides, in data set [8] (eye-drop containing 1.0% w/v tramadol), the pain entry is “reduced the patient's pain further”. Moreover, the tear osmolarity in data set [8] (one hour after instillation of eye-drop containing 0.5% w/v tramadol, 312 milliOsmoles before instillation, person with dry eye) is 299 milliOsmoles. Also, the “effectiveness of the ciclosporin” value in data set [9] is listed as “improve”. Further, the “discomfort in the eye from ciclosporin composition” value in [9] (post corneal transplant) is listed as “significantly reduce”.
